Data from patent US20140249105A1, “NOVEL CERAMIDE ANALOGUES, PROCESSES FOR PREPARING SAME AND USES THEREOF” (Diverchim, priority 2011, published 2014).
* marks the point of attachment. MeOSuc = COC(=O)CCC(=O)*; CH2Cl = ClC*

How the values were obtained:
[1] = system: Normal human dermal fibroblasts (NHDF); assay: Proliferation and/or migration of fibroblasts, artificial wound coverage; format: cell-based; conditions: percentage coverage at 24 h
Description: An increase in migration and proliferation of the cells allows an improvement in healing. • Biological model: Normal human dermal fibroblasts (NHDF) • Culture conditions: 37° C., 5% CO2 • Culture medium: DMEM • Conditions: • Control (NHDF in DMEM test medium 0% FCS) (n=6) • Reference: FCS (Fetal Calf Serum) at 10% (n=2) • compounds tested (n=2) • Incubation: 72 hours • Assay: Normal human fibroblasts were seeded on 96-well plates suitable for the migration studies. In these plates, the substrates were pretreated with a solution of collagen and a mask was placed at the centre of each well, preventing adhesion of the cells in this zone and thus forming an artificial wound. After labelling the cells with calcein, the masks were removed and then the cells were treated with the compounds or the reference. The migration of the cells was monitored microscopically for 72 hours, taking photographs at 0 h, 24 h, 48 h and 72 h. The results are expressed in percentage coverage and compared with the untreated control.

[2] = system: B16 melanocytes; assay: Viability of the cells, test of reduction of MTT; format: cell-based; conditions: 72 h
Description: (§1) Melanocytes were seeded on a 96-well plate and cultured for 24 h (37° C., 5% CO2, DMEM 1 g/L glucose without phenol red supplemented with glucose 3 g/L, L-glutamine 2 mM, penicillin 50 U/mL, streptomycin 50 μg/mL, fetal calf serum (FCS) 10%). […] Each experimental condition was carried out with n=3, apart from the controls carried out with n=6. The cells were then incubated for 72 h. Wells without cells received in parallel the same quantities of medium, supplemented or not with NDP-MSH and with or without the test compounds or the reference in order to quantify the background noise associated with the presence of the compounds.
At the end of the treatment, the cells were incubated in the presence of MTT (3-(4,5-dimethylthiazol-2-yl)-2,5-diphenyl tetrazolium bromide), the conversion of which to blue crystals of formazan is proportional to the activity of succinate dehydrogenase (mitochondrial enzyme). After disruption of the cells, the formazan was dissolved in DMSO medium and the optical density (OD), representative of the number of live cells and of their metabolic reactivity, was measured with a microplate reader at 540 nm (VERSAmax, Molecular Devices).

[3] = system: B16 melanocytes; assay: Screening of anti-melanogenesis activity: melanin assay in B16 melanocytes stimulated with NDP-MSH; format: cell-based; conditions: 72 h
Description: This was carried out for compounds in solution in DMSO. The synthesis of melanin was measured in a model of B16 melanocytes stimulated with a stable derivative of α-MSH (natural hormone that stimulates melanogenesis: Melanocyte Stimulating Hormone): NDP-MSH ([Nle^4, DPhe7]-α-MSH).
as §1
At the end of 72 hours of incubation, the total melanin (intra- and extracellular) was quantified by measuring the absorbance of each sample at 405 nm (direct reading of the culture plates) against a standard range of melanin (melanin concentrations tested from 0.78 to 100 μg/mL). The background noise, measured in the wells without cells, was subtracted from the values measured so that only the effect connected with the production of melanin is taken into account, without including any interference connected with the presence of the compounds. The results were expressed in percentage of melanin relative to the control as well as in percentage inhibition.

[4] = system: Normal human epidermal keratinocytes (NHEK); assay: Proliferation and/or migration of keratinocytes, artificial wound coverage; format: cell-based; conditions: percentage coverage at 48 h
Description: The phases of migration and proliferation of cells are major phases of healing that occur after the inflammation phase and are necessary for recolonization of the wound. An increase in the migration and proliferation of cells allows an improvement in healing. • Biological model: Normal human epidermal keratinocytes (NHEK) • Culture conditions: 37° C., 5% CO2 • Culture medium: Keratinocyte-SFM-PE-EGF (keratinocyte culture medium—serum free medium (SFM) without pituitary extract (PE) and without Epidermal Growth Factor (EGF) • Conditions: • Control (n=6) • Reference: EGF (Epidermal Growth Factor) at 10 ng/ml (n=2) • compounds tested (n=2) • Incubation: 72 hours • Assay: Normal human keratinocytes were seeded on 96-well plates suitable for the migration studies. In these plates, the substrates were pretreated with a solution of collagen and a mask was placed at the centre of each well, preventing adhesion of the cells in this zone and thus forming an artificial wound. After labelling the cells with calcein, the masks were removed and then the cells were treated with the compounds or the reference. The migration of the cells was monitored microscopically for 72 hours, taking photographs at 0 h, 24 h, 48 h and 72 h. The results are expressed in percentage coverage and compared with the untreated control.

[5] = target: T1, tyrosinase (DOPA oxidase) (Homo sapiens, UniProt P14679); assay: Screening of anti-tyrosinase activity: DOPA oxidase reaction on separated epidermis, count of DOPA positive melanocytes per mm2; format: cell-based
T1 construct: from tissue; host or cells: separated human epidermis from a frozen abdominoplasty (melanocytes in situ)
T1 sequence (P14679 19-529): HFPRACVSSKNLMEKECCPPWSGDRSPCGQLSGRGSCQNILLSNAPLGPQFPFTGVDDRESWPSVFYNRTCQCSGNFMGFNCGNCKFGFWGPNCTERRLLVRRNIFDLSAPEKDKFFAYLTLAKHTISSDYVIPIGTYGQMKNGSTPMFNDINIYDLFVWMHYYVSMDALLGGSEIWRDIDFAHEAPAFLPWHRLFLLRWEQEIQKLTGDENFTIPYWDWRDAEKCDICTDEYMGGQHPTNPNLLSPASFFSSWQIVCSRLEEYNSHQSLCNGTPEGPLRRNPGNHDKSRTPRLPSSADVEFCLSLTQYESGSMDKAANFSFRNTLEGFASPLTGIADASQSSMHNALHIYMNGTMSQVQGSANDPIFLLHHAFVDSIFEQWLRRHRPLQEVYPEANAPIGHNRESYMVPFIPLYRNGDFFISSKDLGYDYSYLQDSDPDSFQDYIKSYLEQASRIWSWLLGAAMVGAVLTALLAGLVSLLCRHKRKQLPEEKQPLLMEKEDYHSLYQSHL
Description: The products are tested in solution at 30 μg/mL in DMSO. Epidermis samples originating from a frozen abdominoplasty (person) were separated by incubation in 2N NaBr for 1.0 h at 37° C. They were then fixed in a buffered formolized fixing agent, rinsed and put in contact with the volume/volume mixture: solutions of L-DOPA/test formulation. After incubation, they were rinsed and mounted between slide and cover slip with mounting liquid of the Aquatex type. Observation was by optical microscopy with ×10 objective. Images were obtained with a tri CCD Sony DXC […] camera and stored using the Leica IM1000 data archiving software. For each batch, several microscope fields were analysed using the LEICA QWin image analysis software. For each field, the DOPA positive melanocytes were counted and the area of the zone was measured to determine the melanocyte count per mm^2.

[6] = system: Human dermal fibroblasts aged according to the Hayflick model (P17NHDF); assay: Proliferation of aged human dermal fibroblasts, [3H]-thymidine incorporation; format: cell-based; conditions: 72 hours, 3 μM
Description: Thus, stimulation of the proliferation of the aged fibroblasts makes possible a partial reversal of the deleterious effects of ageing. • Biological model: Human dermal fibroblasts aged according to the Hayflick model (fibroblasts obtained by successive subculture) (P17NHDF) • Culture conditions: 37° C., 5% CO2 • Culture medium: DMEM/fetal calf serum (FCS) 10% • Conditions: • Control (n=6) • Control normal fibroblasts, not aged (P7 NHDF) (n=2) • Reference: EGF (Epidermal Growth Factor) at 10 ng/mL (n=2) • compounds tested (n=2) • Incubation: 72 hours • Assay: The effects on proliferation were evaluated by measuring the incorporation of [^3H]-thymidine in fibroblasts aged according to the Hayflick model. The Hayflick model consists of applying successive subcultures in order to induce an “aged” phenotype. The results are expressed in percentage stimulation of the incorporation of [^3H]-thymidine.

[7] = target: T2, human leukocyte elastase (Homo sapiens, UniProt P08246); assay: Inhibition of leukocyte elastase (EnzChek Elastase assay kit); format: biochemical; conditions: incubation 1 hour
T2 sequence (P08246 30-267): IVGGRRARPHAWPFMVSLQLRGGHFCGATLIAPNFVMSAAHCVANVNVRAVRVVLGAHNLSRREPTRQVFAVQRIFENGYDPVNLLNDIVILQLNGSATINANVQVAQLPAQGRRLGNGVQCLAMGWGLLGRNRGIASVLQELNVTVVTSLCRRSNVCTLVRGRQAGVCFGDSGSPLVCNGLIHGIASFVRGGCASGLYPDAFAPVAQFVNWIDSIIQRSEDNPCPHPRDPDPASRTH
Description: The elastases are a sub-family of serine proteases responsible for the degradation of elastin. The numerous natural substrates of this enzyme include, in addition to elastin, the proteoglycans of cartilage, fibronectin and the type I, II, III and IV collagens. At the cutaneous level, inhibition of elastase can combat the effects of ageing, whether or not photo-induced, and limit the appearance of wrinkles and stretch marks. • Biological model: human leukocyte elastase • Conditions: • Control (n=6) • Reference: AAPV (N-methoxysuccinyl-Ala-Ala-Pro-Val-chloromethyl ketone) 100 μM (n=6) • compounds tested (n=2) • Incubation: 1 hour • Assay: The activity of human leukocyte elastase was evaluated using the EnzChek® Elastase assay kit. The measurement of activity is based on the use of a fluorescent substrate (DQTM Elastin) whose fluorescence is “quenched” through the presence of “quencher” groups at the level of the lytic sites. After action of the enzyme, the “quencher” groups are released and the fluorescence emitted is proportional to the activity of the enzyme. The results are expressed in percentage inhibition of the enzyme activity.

`O=C(/C=C/CCCCCOC1CCCCO1)N[C@H]1CCC[C@H]1NC(=O)/C=C/CCCCCOC1CCCCO1` (stereo partly shown) [c27] was tested, and the “% control 24 h” value ([1]; 10 μM) was 131 % control, the “Viability (MTT) % stimulated control” value ([2]; 30 μM) was 89 % stimulated control and the “Viability (MTT) % stimulated control” value ([2]; 100 μM) was 71 % stimulated control. The inhibition at 30 µM ([3]; Melanocyte, 30 μM, read-out: Normalized data inhibition (%)) was 12% and the inhibition at 100 µM ([3]; Melanocyte, 100 μM, read-out: Normalized data inhibition (%)) was 110%.
For `O=C(NC1CC1NC(=O)C(F)=CCCCCCCCCCCCCCCO)C(F)=CCCCCCCCCCCCCCCO` (stereo not shown) [c42], the “% control 24 h” value ([1]; 3 μM) was 130 % control, the “% control 48 h” value ([4]; 3 μM) was 141 % control and the Variation/control ([5]; DOPA positive melanocyte count per mm2 vs DOPA control, product at 30 μg/mL in DMSO) was −55. The “effectiveness for limiting tyrosinase activity compared with reference compounds” value ([5]; vs ref 1) was “more effective than the reference compounds” and the “Stimulation (%)” value [6] was 48%.
In the case of `CCCCCC=CCC=CCCCCCCCC(=O)NC1CCCC1NC(=O)CCCCCCCC=CCC=CCCCCC` (stereo not shown) [c128], the “Normalized data inhibition (%)” value ([3]; 30 μM) was 9%, the “Normalized data inhibition (%)” value ([3]; 100 μM) was 93% and the “Inhibition (%)” value ([7]; 30 μM) was 75%.
In the case of `CCCCCCCCCCCCCC(=O)NC1CCC(NC(=O)CCCCCCCCCCCCC)C1` (stereo not shown) [c132], the “% control 24 h” value ([1]; 10 μM) was 131 % control and the “% control 48 h” value ([4]; 10 μM) was 138 % control.
For “N-methoxysuccinyl-Ala-Ala-Pro-Val-chloromethyl ketone (MeOSuc-AAPV-CH2Cl) [reference compound]”, the “Inhibition (%)” value ([7]; 100 μM) was 95%.
